Results from patent publication US20140106356A1, “KIT FOR DRUG METABOLISM DETERMINATION AND TOXICITY PREDICTION” (NATIONAL TAIWAN UNIVERSITY, priority 2012, published 2014).

Tested on: CYP1B1
Assay: Cell-based CYP1B1 enzyme activity assay (Luciferin-CEE luminescence, normalized to genomic DNA) in 10F-HDF spheroid-scaffold culture
Details: addition to the spheroid-scaffold culture of 10F-HDFs (GCH tri-copolymer scaffold); FIG. 5B

Structure (SMILES): COc1ccc2[nH]c([S+]([O-])Cc3ncc(C)c(OC)c3C)nc2c1 (stereo not shown) [omeprazole]
- induction of CYP1B1 activities: did not induce
